In US20260200928A1, “THERAPEUTIC COMPOUNDS” (Sanofi, priority 2022, published 2026):

molecular target: T1, human IL-17A (Homo sapiens, UniProt Q16552); experiment: IL-17A AlphaLISA competition assay (block of IL-17A binding to its receptor IL-17RA); details: mean IC50 (n≥2), block of IL-17A binding to IL-17RA
T1 construct: purchased R&D Systems 7955-IL/CF
T1 sequence (Q16552 24-155): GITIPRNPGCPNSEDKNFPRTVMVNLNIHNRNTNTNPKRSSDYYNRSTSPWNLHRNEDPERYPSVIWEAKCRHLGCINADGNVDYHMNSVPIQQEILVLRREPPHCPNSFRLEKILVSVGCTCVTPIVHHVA
Outline: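 Human recombinant IL-17A (7.5 nM stock) pre-incubated 30 min at RT with compound, then IL-17RA/Fc (5 nM stock) added for 90 min; AlphaLISA read with anti-Fc acceptor beads, biotinylated anti-IL-17A antibody (5 nM) and streptavidin donor beads (3 h, dark). IC50 from 4-parameter logistic fit, normalised to DMSO and 4 μM reference inhibitor; n≥2.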

Compound | IC50
Cn1nccc1C(=O)N[C@H](C(=O)Nc1cc([C@H](NC(=O)CCC(F)(F)F)C2CC2)ccn1)C1CCC(F)(F)CC1 [Example 107, N—((S)-2-((4-((R)-cyclopropyl(4,4,4-trifluorobutanamido)methyl)pyridin-2-yl)amino)-1-(4,4-difluorocyclohexyl)-2-oxoethyl)-1-methyl-1H-pyrazole-5-carboxamide] | 177 nM
CCn1nccc1C(=O)N[C@H](C(=O)Nc1cc([C@@H](COC)N2C[C@@H](C(F)(F)F)NC2=O)ccn1)C1CCC(C(F)(F)F)CC1 (stereo partly drawn) [Example 301, 1-ethyl-N-((1S)-2-((4-((S)-2-methoxy-1-((S)-2-oxo-4-(trifluoromethyl)imidazolidin-1-yl)ethyl)pyridin-2-yl)amino)-2-oxo-1-(4-(trifluoromethyl)-cyclohexyl)ethyl)-1H-pyrazole-5-carboxamide] | 38 nM
CCn1nccc1C(=O)NC(C(=O)Nc1cc(Cc2cccc(=O)n2C)ccn1)C1CCC(F)(F)CC1 (stereo not shown) [Example 36, N-(1-(4,4-difluorocyclohexyl)-2-((4-((1-methyl-6-oxo-1,6-dihydro-pyridin-2-yl)methyl)pyridin-2-yl)amino)-2-oxoethyl)-1-ethyl-1H-pyrazole-5-carboxamide] | 12000 nM
COC[C@H](c1ccnc(NC(=O)[C@@H](NC(=O)c2nonc2C2CC2)C(C2CC2)C2CC2)c1)N1C[C@@H](C(F)(F)F)NC1=O [Example 227, 4-cyclopropyl-N-((S)-1,1-dicyclopropyl-3-((4-((S)-2-methoxy-1-((S)-2-oxo-4-(trifluoromethyl)imidazolidin-1-yl)ethyl)pyridin-2-yl)amino)-3-oxopropan-2-yl)-1,2,5-oxadiazole-3-carboxamide] | 20 nM
COCC(c1ccnc(NC(=O)[C@@H](NC(=O)c2ocnc2C)[C@H]2CC[C@H](C)CC2)c1)N1C[C@@H](C(F)(F)F)NC1=O (single isomer, unassigned) [Example 122] | 82 nM
O=C(N[C@H](C(=O)Nc1cc(CN2C[C@@H](C(F)(F)F)NC2=O)ccn1)C1CCC(F)(F)CC1)c1ccnn1C1CC1 [Example 14, 1-cyclopropyl-N-((S)-1-(4,4-difluorocyclohexyl)-2-oxo-2-((4-(((S)-2-oxo-4-(trifluoromethyl)imidazolidin-1-yl)methyl)pyridin-2-yl)amino)ethyl)-1H-pyrazole-5-carboxamide] | 333 nM
O=C(CCC(F)(F)F)NC(c1ccnc(NC(=O)[C@@H](NC(=O)c2ncco2)C2CCC(F)(F)CC2)c1)C1CC1 (stereo partly drawn) [Example 105, N-((1S)-2-((4-(cyclopropyl(4,4,4-trifluorobutanamido)methyl)pyridin-2-yl)amino)-1-(4,4-difluorocyclohexyl)-2-oxoethyl)oxazole-2-carboxamide] | 3340 nM
COC[C@H](c1ccnc(NC(=O)[C@@H](NC(=O)c2nonc2OCC(F)(F)F)C2CCC(F)(F)CC2)c1)N1C[C@@H](C(F)(F)F)NC1=O [Example 193, N-((S)-1-(4,4-difluorocyclohexyl)-2-((4-((S)-2-methoxy-1-((S)-2-oxo-4-(trifluoromethyl)imidazolidin-1-yl)ethyl)pyridin-2-yl)amino)-2-oxoethyl)-4-(2,2,2-trifluoroethoxy)-1,2,5-oxadiazole-3-carboxamide] | 105 nM
COCC(c1ccnc(NC(=O)[C@@H](NC(=O)c2ncsc2C#N)[C@H]2CC[C@H](C)CC2)c1)N1C[C@@H](C(F)(F)F)NC1=O (single isomer, unassigned) [Example 92] | 539 nM
CCc1conc1C(=O)N[C@H](C(=O)Nc1cc([C@@H](COC)N2C[C@@H](C(F)(F)F)NC2=O)ccn1)C1CCC(Cl)CC1 (stereo partly drawn) [Example 314, N-((1S)-1-(4-chlorocyclohexyl)-2-((4-((S)-2-methoxy-1-((S)-2-oxo-4-(trifluoromethyl)imidazolidin-1-yl)ethyl)pyridin-2-yl)amino)-2-oxoethyl)-4-ethylisoxazole-3-carboxamide] | 58 nM
CC[C@H](c1ccnc(NC(=O)[C@@H](NC(=O)c2nonc2C2CC2)C2CCC(F)(F)CC2)c1)N1C[C@@H](C(F)(F)F)NC1=O [Example 212, 4-cyclopropyl-N-((S)-1-(4,4-difluorocyclohexyl)-2-oxo-2-((4-((R)-1-((S)-2-oxo-4-(trifluoromethyl)imidazolidin-1-yl)propyl)pyridin-2-yl)amino)ethyl)-1,2,5-oxadiazole-3-carboxamide] | 23 nM
COC[C@H](c1ccnc(NC(=O)[C@@H](NC(=O)c2nonc2C2CC2)C2CCC(F)(F)CC2)c1)N1C[C@@H](C(F)(F)F)NC1=O [Example 200, 4-cyclopropyl-N-((S)-1-(4,4-difluorocyclohexyl)-2-((4-((S)-2-methoxy-1-((S)-2-oxo-4-(trifluoromethyl)imidazolidin-1-yl)ethyl)pyridin-2-yl)amino)-2-oxoethyl)-1,2,5-oxadiazole-3-carboxamide] | 18 nM
Cc1n[nH]c(C)c1Cc1ccnc(NC(=O)[C@@H](NC(=O)OC(C)(C)C)[C@H]2CC[C@H](C)CC2)c1 [Example 79, Tert-butyl ((S)-2-((4-((3,5-dimethyl-1H-pyrazol-4-yl)methyl)pyridin-2-yl)amino)-1-((1r,4S)-4-methylcyclohexyl)-2-oxoethyl)carbamate] | 5270 nM
COCC(c1ccnc(NC(=O)[C@@H](NC(=O)c2ncncc2C)[C@H]2CC[C@H](C)CC2)c1)N1C[C@H](C(F)(F)F)NC1=O (stereo partly drawn) [Example 135, N-((1S)-2-((4-(2-methoxy-1-((S)-2-oxo-4-(trifluoromethyl)imidazolidin-1-yl)ethyl)pyridin-2-yl)amino)-1-((1r,4S)-4-methylcyclohexyl)-2-oxoethyl)-5-methylpyrimidine-4-carboxamide] | 1460 nM
CCc1nocc1C(=O)N[C@H](C(=O)Nc1cc([C@@H](COC)N2C[C@@H](C(F)(F)F)NC2=O)ccn1)C1CCC(C(F)(F)F)CC1 (stereo partly drawn) [Example 300, 3-ethyl-N-((1S)-2-((4-((S)-2-methoxy-1-((S)-2-oxo-4-(trifluoromethyl)-imidazolidin-1-yl)ethyl)pyridin-2-yl)amino)-2-oxo-1-(4-(trifluoromethyl)-cyclohexyl)ethyl)isoxazole-4-carboxamide] | 39 nM
CC(C)n1nccc1C(=O)N[C@H](C(=O)Nc1cc(O[C@H]2C[C@@H](C(F)(F)F)NC2=O)ccn1)[C@H]1CC[C@H](C)CC1 [Example 320, 1-isopropyl-N—((S)-1-((1r,4S)-4-methylcyclohexyl)-2-oxo-2-((4-(((3S,5S)-2-oxo-5-(trifluoromethyl)pyrrolidin-3-yl)oxy)pyridin-2-yl)amino)ethyl)-1H-pyrazole-5-carboxamide] | 604 nM
CC(C)(C)OC(=O)N[C@H](C(=O)Nc1cc(CN2C(=O)CNC2=O)ccn1)C1CCC(F)(F)CC1 [Example 28, Tert-butyl (S)-(1-(4,4-difluorocyclohexyl)-2-((4-((2,5-dioxoimidazolidin-1-yl)methyl)pyridin-2-yl)amino)-2-oxoethyl)carbamate] | 8400 nM
COCC(c1ccnc(NC(=O)[C@@H](NC(=O)Cc2cc(C)no2)[C@H]2CC[C@H](C)CC2)c1)N1C[C@@H](C(F)(F)F)NC1=O (single isomer, unassigned) [Example 123] | 65 nM
[2H]C(c1ccnc(NC(=O)[C@@H](NC(=O)c2ccnn2C)[C@H]2CC[C@H](C)CC2)c1)N1C[C@@H](C(F)(F)F)NC1=O (stereo partly drawn) [Example 232, 1-Methyl-N-((1S)-1-((1r,4S)-4-methylcyclohexyl)-2-oxo-2-((4-(((S)-2-oxo-4-(trifluoromethyl)imidazolidin-1-VI)methyl-d)pyridin-2-yl)amino)ethyl)-1H-pyrazole-5-carboxamide] | 53 nM
CC(c1ccnc(NC(=O)[C@@H](NC(=O)c2ccnn2C)C2CCC(F)(F)CC2)c1)N1C[C@@H](C(F)(F)F)NC1=O (single isomer, unassigned) [Example 171, N-((1S)-1-(4,4-difluorocyclohexyl)-2-oxo-2-((4-((R or S)-1-((S)-2-oxo-4-(trifluoromethyl)imidazolidin-1-yl)ethyl)pyridin-2-yl)amino)ethyl)-1-methyl-1H-pyrazole-5-carboxamide] | 67 nM
COC[C@H](c1ccnc(NC(=O)C(NC(=O)c2ccnn2C)C2CCC(F)CC2)c1)N1C[C@@H](C(F)(F)F)NC1=O (single isomer, unassigned) [Example 288] | 84 nM
CCc1nocc1C(=O)N[C@H](C(=O)Nc1cc(C(NC(=O)CCC(F)(F)F)C2CC2)ccn1)C1CCC(F)(F)CC1 (stereo partly drawn) [Example 161, N-((1S)-2-((4-(cyclopropyl(4,4,4-trifluorobutanamido)methyl)pyridin-2-yl)amino)-1-(4,4-difluorocyclohexyl)-2-oxoethyl)-3-ethylisoxazole-4-carboxamide] | 615 nM
CC1CCC(C(NC(=O)c2nonc2C2CC2)C(=O)Nc2cc(C(C)N3CC(C(F)(F)F)NC3=O)ccn2)CC1 [Example 238, 4-cyclopropyl-N-((S)-1-((1r,4S)-4-methylcyclohexyl)-2-oxo-2-((4-((R)-1-((S)-2-oxo-4-(trifluoromethyl)imidazolidin-1-yl)ethyl)pyridin-2-yl)amino)ethyl)-1,2,5-oxadiazole-3-carboxamide] | 14 nM
CC(C)(C)OCC(NC(=O)OCc1ccccc1)C(=O)Nc1cc(CN2C[C@@H](C(F)(F)F)NC2=O)ccn1 (mixture of isomers) [Example 81, Benzyl ((rac)-3-(tert-butoxy)-1-oxo-1-((4-(((S)-2-oxo-4-(trifluoromethyl)imidazolidin-1-yl)methyl)pyridin-2-yl)amino)propan-2-yl)carbamate] | 6140 nM
CC(C)n1nccc1C(=O)N[C@H](C(=O)Nc1cc(C(NC(=O)CCC(F)(F)F)C2CC2)ccn1)C(C1CC1)C1CC1 (single isomer, unassigned) [Example 43] | 171 nM
